Source: PMC6010098, “Synthesis, antitumour and antioxidant activities of novel α,β-unsaturated ketones and related heterocyclic analogues: EGFR inhibition and molecular modelling study” (Journal of Enzyme Inhibition and Medicinal Chemistry, 2018)
Read-outs that look alike come from different tables or passages of the source. Values belong to the compound of their own block, whether it stands above or below them.

Experiments:
[1] = system: HepG2, MCF-7, HeLa, and PC-3 cancer cell lines; experiment: MTT antitumour assay, range over the four cell lines; assay type: cell-based, human; settings: range over HepG2, MCF-7, HeLa, PC-3 (and over the compounds named), read-out: IC50 range against the tested cell lines
Protocol: (§1) The evaluation of the antitumour activity was performed using tetrazolium salt MTT (3-(4,5-dimethyl-2-thiazolyl)-2,5-diphenyl-2H-tetrazolium bromide) assay as reported[62]^,[63].
(§2) The designed compounds were evaluated for their in vitro antitumour effects via the standard 3-(4,5-dimethylthiazol-2-yl)-2,5-diphenyltetrazolium bromide (MTT) method against a panel of four human tumour cell lines; namely, hepatocellular carcinoma cell line (HepG2), breast cancer cell line (MCF-7), human cervical cancer cell line (HeLa), and prostate cancer cell line (PC-3)[62]^,[63]^,[72]. The antitumour activities of the designed compounds 4–12, along with that of the reference drugs 5-FU and afatinib are shown in Table 1.

[2] = ABTS radical cation scavenging (antioxidant) assay; settings: 20 µl of 1 mg/ml test sample (L-ascorbic acid 20 µl, 2 mM)
Protocol: The absorbance (Acontrol) of a green-blue solution (ABTS^+ radical solution) resulted from a mixture of ABTS and manganese dioxide (MnO2) and was recorded at λmax 734 nm, according to the reported procedure[64]^,[65]. The absorbance (Atest) was measured upon the addition of 20 µl of 1 mg/ml solution of the test sample in spectroscopic grade methanol/phosphate buffer (1:1 v/v) to the ABTS solution. The decrease in absorbance is expressed as % inhibition, which can be calculated from the following equation: % inhibition = Acontrol-Atest/Acontrol×100.
L-Ascorbic acid 20 µl (2 mM) solution was used as standard antioxidant (positive control). A blank sample was run using only methanol/phosphate buffer (1:1), while the negative control was run with ABTS and the methanol/phosphate buffer.
The assay is based on measuring the ability of the tested compounds to scavenge the long-life radical cation of ABTS[22]^,[43]^,[64]^,[65].

HeLa cells = experiment: MTT antitumour assay, HeLa; assay type: cell-based; settings: human cervical epithelioid carcinoma cell line, mean ± SD, n = 3
Protocol: as §1
as §2, with “(PC-3)[62]^,[63]^,[72].” for “(PC-3)[62]^,[63]^,[72]. The antitumour activities of the designed compounds 4–12, along with that of the reference drugs 5-FU and afatinib are shown in Table 1.”

EGFR kinase = EGFR kinase (Homo sapiens, UniProt P00533); experiment: ELISA-based EGFR kinase inhibition assay; settings: for inhibition at 0.15 µM: read-out: % Inhibition EGFR, 0.15 μM; for inhibition at 0.31 µM: read-out: % Inhibition EGFR, 0.31 μM; for inhibition at 0.625 µM: read-out: % Inhibition EGFR, 0.625 μM; for inhibition at 1.25 µM: read-out: % Inhibition EGFR, 1.25 μM; for inhibition at 2.5 µM: read-out: % Inhibition EGFR, 2.5 μM; for inhibition at 5 µM: read-out: % Inhibition EGFR, 5.0 μM; for inhibition at 10 µM: read-out: % Inhibition EGFR, 10.0 μM; for Conc. (Average), ELISA read-out: duplicate wells, standards in ng/ml, cont 134.9
HepG2 cells = experiment: MTT antitumour assay, HepG2; assay type: cell-based; settings: human hepato-cellular carcinoma cell line, mean ± SD, n = 3
Protocol: as §1, §2

MCF-7 cells = experiment: MTT antitumour assay, MCF-7; assay type: cell-based; settings: MCF7, human breast adenocarcinoma cell line, mean ± SD, n = 3
Protocol: as §1, §2

PC-3 cells = experiment: MTT antitumour assay, PC-3; assay type: cell-based; settings: human prostate cancer cell line, mean ± SD, n = 3
Protocol: as §1, §2

EGFR kinase, sequence (P00533 25-1210): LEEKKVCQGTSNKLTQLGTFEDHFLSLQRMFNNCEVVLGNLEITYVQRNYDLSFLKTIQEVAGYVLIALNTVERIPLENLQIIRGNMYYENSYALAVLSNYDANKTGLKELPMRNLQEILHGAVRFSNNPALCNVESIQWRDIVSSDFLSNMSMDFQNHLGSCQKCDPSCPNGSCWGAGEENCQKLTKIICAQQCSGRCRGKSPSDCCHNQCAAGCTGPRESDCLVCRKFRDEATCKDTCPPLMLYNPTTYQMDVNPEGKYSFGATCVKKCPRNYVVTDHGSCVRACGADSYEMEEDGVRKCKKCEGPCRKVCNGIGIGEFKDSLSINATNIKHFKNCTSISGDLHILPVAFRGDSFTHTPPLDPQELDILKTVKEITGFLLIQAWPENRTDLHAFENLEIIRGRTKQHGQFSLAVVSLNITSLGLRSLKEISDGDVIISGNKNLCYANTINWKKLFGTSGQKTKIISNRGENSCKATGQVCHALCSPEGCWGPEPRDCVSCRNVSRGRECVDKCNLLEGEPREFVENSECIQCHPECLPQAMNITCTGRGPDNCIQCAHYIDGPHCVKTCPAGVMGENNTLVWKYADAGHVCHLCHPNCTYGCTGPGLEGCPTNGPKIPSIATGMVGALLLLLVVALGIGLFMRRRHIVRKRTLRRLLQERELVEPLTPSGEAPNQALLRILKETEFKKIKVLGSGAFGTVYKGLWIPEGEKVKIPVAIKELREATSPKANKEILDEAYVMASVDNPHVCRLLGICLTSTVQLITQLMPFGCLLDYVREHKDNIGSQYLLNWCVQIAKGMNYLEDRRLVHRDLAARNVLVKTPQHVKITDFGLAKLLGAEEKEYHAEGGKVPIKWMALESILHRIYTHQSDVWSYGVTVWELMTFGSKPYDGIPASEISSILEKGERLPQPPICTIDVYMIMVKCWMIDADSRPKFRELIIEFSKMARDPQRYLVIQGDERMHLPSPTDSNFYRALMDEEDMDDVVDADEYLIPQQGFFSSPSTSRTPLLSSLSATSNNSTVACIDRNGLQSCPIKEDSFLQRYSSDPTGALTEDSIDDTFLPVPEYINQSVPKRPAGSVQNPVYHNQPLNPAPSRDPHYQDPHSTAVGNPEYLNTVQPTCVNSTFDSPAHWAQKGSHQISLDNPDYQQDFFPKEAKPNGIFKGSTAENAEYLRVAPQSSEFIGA

IC50 ([1]; Homo sapiens): 5.5 to 18.1 µM
IC50 (HeLa cells): 10.3 ± 1.13 µM
IC50 (EGFR kinase): 1.6 µM
% Inhibition EGFR (EGFR kinase; 0.15 μM): 8.22%
% Inhibition EGFR (EGFR kinase; 0.31 μM): 31.78%
% Inhibition EGFR (EGFR kinase; 0.625 μM): 43.27%
% Inhibition EGFR (EGFR kinase; 1.25 μM): 49.65%
% Inhibition EGFR (EGFR kinase; 2.5 μM): 52.86%
% Inhibition EGFR (EGFR kinase; 5.0 μM): 65.98%
% Inhibition EGFR (EGFR kinase; 10.0 μM): 72.78%
inhibition at 0.15 µM (EGFR kinase): 8.23%
inhibition at 0.31 µM (EGFR kinase): 31.8%
inhibition at 0.625 µM (EGFR kinase): 43.3%
inhibition at 1.25 µM (EGFR kinase): 49.7%
inhibition at 2.5 µM (EGFR kinase): 52.9%
inhibition at 5 µM (EGFR kinase): 66%
inhibition at 10 µM (EGFR kinase): 72.8%
Conc. (Average), ELISA read-out (EGFR kinase; sample at 0.15uM): 123.8
Conc. (Average), ELISA read-out (EGFR kinase; sample at 0.31uM): 92.02
Conc. (Average), ELISA read-out (EGFR kinase; sample at 0.62uM): 76.52
Conc. (Average), ELISA read-out (EGFR kinase; sample at 1.25uM): 67.92
Conc. (Average), ELISA read-out (EGFR kinase; sample at 2.5uM): 63.59
Conc. (Average), ELISA read-out (EGFR kinase; sample at 5uM): 45.89
Conc. (Average), ELISA read-out (EGFR kinase; sample at 10uM): 36.71
IC50 (HepG2 cells): 8 ± 0.38 µM
IC50 (MCF-7 cells): 7.5 ± 0.54 µM
IC50 (PC-3 cells; PC-3, MTT): 13.3 ± 1.26 µM
Compound: CCOC(=O)C1=C(C)OC(N)=C(C#N)C1c1ccc(OC2CCCC2)cc1 (stereo not shown) [compound 7, ethyl 6-amino-5-cyano-4-(4-(cyclopentyloxy)phenyl)-2-methyl-4H-pyran-3-carboxylate]
%Inhibition of the ABTS radical cation [2]: 75.8%

Compound: O=C1O[C@H]([C@@H](O)CO)C(O)=C1O [Ascorbic acid, L-Ascorbic acid, reference compound]
%Inhibition of the ABTS radical cation [2]: 90.0%

IC50 ([1]; Homo sapiens): 5.5 to 18.1 µM
IC50 [1]: 5.5 to 7.8 µM
IC50 (HeLa cells): 5.5 ± 0.45 µM
IC50 (EGFR kinase): 2.16 µM
% Inhibition EGFR (EGFR kinase; 0.15 μM): 6.96%
% Inhibition EGFR (EGFR kinase; 0.31 μM): 26.25%
% Inhibition EGFR (EGFR kinase; 0.625 μM): 43.85%
% Inhibition EGFR (EGFR kinase; 1.25 μM): 47.28%
% Inhibition EGFR (EGFR kinase; 2.5 μM): 50.51%
% Inhibition EGFR (EGFR kinase; 5.0 μM): 60.72%
% Inhibition EGFR (EGFR kinase; 10.0 μM): 64.88%
inhibition at 0.15 µM (EGFR kinase): 6.97%
inhibition at 0.31 µM (EGFR kinase): 26.3%
inhibition at 0.625 µM (EGFR kinase): 43.9%
inhibition at 1.25 µM (EGFR kinase): 47.3%
inhibition at 2.5 µM (EGFR kinase): 50.5%
inhibition at 5 µM (EGFR kinase): 60.7%
inhibition at 10 µM (EGFR kinase): 64.9%
Conc. (Average), ELISA read-out (EGFR kinase; sample at 0.15uM): 125.5
Conc. (Average), ELISA read-out (EGFR kinase; sample at 0.31uM): 99.48
Conc. (Average), ELISA read-out (EGFR kinase; sample at 0.62uM): 75.74
Conc. (Average), ELISA read-out (EGFR kinase; sample at 1.25uM): 71.11
Conc. (Average), ELISA read-out (EGFR kinase; sample at 2.5uM): 66.76
Conc. (Average), ELISA read-out (EGFR kinase; sample at 5uM): 52.98
Conc. (Average), ELISA read-out (EGFR kinase; sample at 10uM): 47.37
IC50 (HepG2 cells): 7.2 ± 0.24 µM
IC50 (MCF-7 cells): 5.6 ± 0.36 µM
IC50 (PC-3 cells; PC-3, MTT): 7.8 ± 0.56 µM
Compound: Cc1ccc(C2=NN(c3ccccc3)C(c3ccc(OC4CCCC4)cc3)C2)cc1 (stereo not shown) [8b, 5-(4-(Cyclopentyloxy)phenyl)-1-phenyl-3-(4-methylphenyl)-4,5-dihydro-1H-pyrazole]
%Inhibition of the ABTS radical cation [2]: 88.5%

IC50 (HeLa cells): 89.4 ± 4.89 µM
IC50 (HepG2 cells): 85.4 ± 5.31 µM
IC50 (MCF-7 cells): 87.1 ± 5.24 µM
IC50 (PC-3 cells; PC-3, MTT): > 100 µM
melting point: > 300 °C
Compound: O=C(O)c1cc(C=Cc2ccc(OC3CCCC3)cc2)nc2ccc(Br)cc12 [12a, 6-Bromo-2-(4-(cyclopentyloxy)styryl)quinoline-4-carboxylicacid]

IC50 (HeLa cells): 51.2 ± 3.82 µM
IC50 (HepG2 cells): 80.9 ± 5.34 µM
IC50 (MCF-7 cells): 70.9 ± 4.98 µM
IC50 (PC-3 cells; PC-3, MTT): 41.9 ± 2.87 µM
melting point: 278 to 280 °C
Compound: Cc1ccc(-c2cc(-c3ccc(OC4CCCC4)cc3)c(C#N)c(=O)[nH]2)cc1 [compound 10, 4-(4-(cyclopentyloxy)phenyl)-2-oxo-6-(4-methylphenyl)-1,2-dihydropyridine-3-carbonitrile]

IC50 ([1]; Homo sapiens): 5.4 to 7.6 µM
IC50 (HeLa cells): 6.2 ± 0.67 µM
IC50 (HepG2 cells): 5.4 ± 0.25 µM
IC50 (MCF-7 cells): 7.1 ± 0.49 µM
IC50 (PC-3 cells; Homo sapiens, PC-3, MTT): 7.6 µM
IC50 (PC-3 cells; MTT): 7.7 ± 0.57 µM
Compound: CN(C)C/C=C/C(=O)Nc1cc2c(Nc3ccc(F)c(Cl)c3)ncnc2cc1O[C@H]1CCOC1 [Afatinib, reference compound]

IC50 (HeLa cells): 30.1 ± 2.24 µM
IC50 (HepG2 cells): 55.4 ± 3.95 µM
IC50 (MCF-7 cells): 49.4 ± 3.16 µM
IC50 (PC-3 cells; PC-3, MTT): 71.1 ± 4.93 µM
Compound: O=C1CCCCC1=Cc1ccc(OC2CCCC2)cc1 [5b, 2-(4-(Cyclopentyloxy)benzylidene)cyclohexanone]
%Inhibition of the ABTS radical cation [2]: 51.4%
